Test results published in ChEMBL document CHEMBL5058641, “Data for DCP probe TP-050” (2022).

Experiments:
[1] = molecular target: Histamine H4 receptor (Homo sapiens) (UniProt Q9H3N8); conditions: Compound concentration 10.0 uM
[2] = molecular target: 5-hydroxytryptamine receptor 1E (Homo sapiens) (UniProt P28566); conditions: Compound concentration 10.0 uM
[3] = molecular target: T1, Sodium-dependent dopamine transporter (Homo sapiens, UniProt Q01959); experiment: GPCRScan assay: inhibition of DAT; set-up: radioligand conc. used [nm] 3.6 – 16.0, parental cells stable HEK
T1 sequence (Q01959 whole entry): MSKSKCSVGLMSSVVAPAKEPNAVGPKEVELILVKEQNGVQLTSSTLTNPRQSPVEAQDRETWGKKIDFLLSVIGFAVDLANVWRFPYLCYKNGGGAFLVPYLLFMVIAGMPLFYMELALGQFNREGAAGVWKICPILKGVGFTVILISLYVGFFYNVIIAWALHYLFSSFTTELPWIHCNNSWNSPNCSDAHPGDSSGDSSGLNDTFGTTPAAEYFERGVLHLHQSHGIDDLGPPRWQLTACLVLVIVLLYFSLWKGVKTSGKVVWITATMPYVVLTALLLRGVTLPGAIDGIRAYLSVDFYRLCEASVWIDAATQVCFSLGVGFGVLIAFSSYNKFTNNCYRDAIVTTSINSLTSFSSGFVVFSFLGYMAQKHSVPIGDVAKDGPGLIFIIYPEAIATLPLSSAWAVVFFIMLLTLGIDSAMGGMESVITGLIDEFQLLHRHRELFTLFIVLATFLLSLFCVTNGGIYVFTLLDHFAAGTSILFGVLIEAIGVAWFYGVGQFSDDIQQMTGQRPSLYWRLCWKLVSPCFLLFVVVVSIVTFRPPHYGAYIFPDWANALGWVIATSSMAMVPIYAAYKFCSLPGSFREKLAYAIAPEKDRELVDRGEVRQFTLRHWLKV

Rattus norvegicus = species: Rattus norvegicus; conditions: Compound concentration 10.0 uM
[4] = molecular target: Alpha-1D adrenergic receptor (Homo sapiens) (UniProt P25100); conditions: Compound concentration 10.0 uM
Sequence of Alpha-1D adrenergic receptor (Homo sapiens) (P25100 whole entry): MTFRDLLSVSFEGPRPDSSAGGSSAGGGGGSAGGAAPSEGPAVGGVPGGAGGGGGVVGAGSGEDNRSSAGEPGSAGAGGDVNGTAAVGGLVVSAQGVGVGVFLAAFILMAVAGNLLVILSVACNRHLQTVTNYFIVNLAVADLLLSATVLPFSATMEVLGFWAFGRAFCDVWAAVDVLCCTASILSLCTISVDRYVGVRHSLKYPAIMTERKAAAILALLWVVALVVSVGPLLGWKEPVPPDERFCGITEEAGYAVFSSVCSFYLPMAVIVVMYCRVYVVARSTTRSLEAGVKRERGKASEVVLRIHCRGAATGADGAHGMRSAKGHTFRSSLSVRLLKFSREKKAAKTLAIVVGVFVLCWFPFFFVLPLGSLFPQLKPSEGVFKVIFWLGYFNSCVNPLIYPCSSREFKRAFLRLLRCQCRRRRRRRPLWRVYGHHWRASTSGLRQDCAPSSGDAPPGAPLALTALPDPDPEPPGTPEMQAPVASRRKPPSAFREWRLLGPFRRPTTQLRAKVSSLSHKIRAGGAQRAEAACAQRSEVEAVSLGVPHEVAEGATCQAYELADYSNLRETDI

[5] = molecular target: D(3) dopamine receptor (Homo sapiens) (UniProt P35462); conditions: Compound concentration 10.0 uM
Sequence of D(3) dopamine receptor (Homo sapiens) (P35462 whole entry): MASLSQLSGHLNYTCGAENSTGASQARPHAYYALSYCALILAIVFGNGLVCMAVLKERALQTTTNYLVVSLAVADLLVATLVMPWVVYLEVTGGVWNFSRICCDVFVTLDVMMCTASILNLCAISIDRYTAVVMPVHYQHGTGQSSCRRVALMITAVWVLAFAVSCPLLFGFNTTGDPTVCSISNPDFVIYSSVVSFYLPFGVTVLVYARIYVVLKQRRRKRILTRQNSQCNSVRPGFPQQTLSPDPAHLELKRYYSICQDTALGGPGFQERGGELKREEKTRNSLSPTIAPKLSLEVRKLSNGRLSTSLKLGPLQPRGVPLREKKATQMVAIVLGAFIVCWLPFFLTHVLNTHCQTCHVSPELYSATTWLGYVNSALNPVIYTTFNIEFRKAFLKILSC

[6] = molecular target: 5-hydroxytryptamine receptor 2A (Homo sapiens, UniProt P28223); conditions: Compound concentration 10.0 uM
[7] = molecular target: 5-hydroxytryptamine receptor 6 (Homo sapiens) (UniProt P50406); conditions: Compound concentration 10.0 uM
[8] = molecular target: 5-hydroxytryptamine receptor 5A (Homo sapiens) (UniProt P47898); conditions: Compound concentration 10.0 uM
Histamine H1 receptor = Histamine H1 receptor (Homo sapiens, UniProt P35367); conditions: Compound concentration 10.0 uM
D(1A) dopamine receptor = D(1A) dopamine receptor (Homo sapiens, UniProt P21728); conditions: Compound concentration 10.0 uM
Sequence of D(1A) dopamine receptor (P21728 whole entry): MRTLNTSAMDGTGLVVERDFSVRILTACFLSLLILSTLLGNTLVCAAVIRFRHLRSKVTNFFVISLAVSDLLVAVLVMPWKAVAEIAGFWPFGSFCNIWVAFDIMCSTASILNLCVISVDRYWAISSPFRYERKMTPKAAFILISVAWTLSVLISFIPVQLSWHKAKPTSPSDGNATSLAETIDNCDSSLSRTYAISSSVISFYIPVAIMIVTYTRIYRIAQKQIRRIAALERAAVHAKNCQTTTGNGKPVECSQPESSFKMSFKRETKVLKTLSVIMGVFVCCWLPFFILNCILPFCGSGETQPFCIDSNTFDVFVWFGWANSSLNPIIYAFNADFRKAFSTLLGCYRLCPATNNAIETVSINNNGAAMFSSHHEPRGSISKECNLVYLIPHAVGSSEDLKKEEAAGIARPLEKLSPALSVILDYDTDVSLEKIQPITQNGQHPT

Mu-type opioid receptor = Mu-type opioid receptor (Homo sapiens, UniProt P35372); conditions: Compound concentration 10.0 uM
[9] = molecular target: Delta-type opioid receptor (Homo sapiens, UniProt P41143); conditions: Compound concentration 10.0 uM
[10] = molecular target: 5-hydroxytryptamine receptor 1B (Homo sapiens, UniProt P28222); conditions: Compound concentration 10.0 uM
[11] = molecular target: Alpha-2C adrenergic receptor (Homo sapiens) (UniProt P18825); conditions: Compound concentration 10.0 uM
Sequence of Alpha-2C adrenergic receptor (Homo sapiens) (P18825 whole entry): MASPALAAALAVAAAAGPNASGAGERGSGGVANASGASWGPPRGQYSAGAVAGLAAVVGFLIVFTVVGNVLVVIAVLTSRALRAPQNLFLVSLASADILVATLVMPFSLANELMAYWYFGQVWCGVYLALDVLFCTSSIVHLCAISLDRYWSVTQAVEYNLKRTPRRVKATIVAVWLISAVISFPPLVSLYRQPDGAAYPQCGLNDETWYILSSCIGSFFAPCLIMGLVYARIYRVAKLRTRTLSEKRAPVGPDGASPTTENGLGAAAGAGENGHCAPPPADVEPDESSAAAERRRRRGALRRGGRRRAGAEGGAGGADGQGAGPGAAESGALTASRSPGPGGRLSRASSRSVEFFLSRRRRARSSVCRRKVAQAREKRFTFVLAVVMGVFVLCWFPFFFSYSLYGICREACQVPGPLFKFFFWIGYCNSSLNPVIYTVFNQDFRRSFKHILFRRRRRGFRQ

[12] = molecular target: Alpha-1B adrenergic receptor (Homo sapiens) (UniProt P35368); conditions: Compound concentration 10.0 uM
[13] = molecular target: Sigma intracellular receptor 2 (Homo sapiens) (UniProt Q5BJF2); conditions: Compound concentration 10.0 uM
[14] = molecular target: Alpha-2A adrenergic receptor (Homo sapiens) (UniProt P08913); conditions: Compound concentration 10.0 uM
[15] = molecular target: Alpha-2B adrenergic receptor (Homo sapiens) (UniProt P18089); conditions: Compound concentration 10.0 uM
[16] = molecular target: 5-hydroxytryptamine receptor 1D (Homo sapiens, UniProt P28221); conditions: Compound concentration 10.0 uM
[17] = molecular target: Histamine H3 receptor (Homo sapiens) (UniProt Q9Y5N1); conditions: Compound concentration 10.0 uM
[18] = molecular target: 5-hydroxytryptamine receptor 1A (Homo sapiens) (UniProt P08908); conditions: Compound concentration 10.0 uM
[19] = molecular target: Muscarinic acetylcholine receptor M1 (Homo sapiens) (UniProt P11229); conditions: Compound concentration 10.0 uM
Sequence of Muscarinic acetylcholine receptor M1 (Homo sapiens) (P11229 whole entry): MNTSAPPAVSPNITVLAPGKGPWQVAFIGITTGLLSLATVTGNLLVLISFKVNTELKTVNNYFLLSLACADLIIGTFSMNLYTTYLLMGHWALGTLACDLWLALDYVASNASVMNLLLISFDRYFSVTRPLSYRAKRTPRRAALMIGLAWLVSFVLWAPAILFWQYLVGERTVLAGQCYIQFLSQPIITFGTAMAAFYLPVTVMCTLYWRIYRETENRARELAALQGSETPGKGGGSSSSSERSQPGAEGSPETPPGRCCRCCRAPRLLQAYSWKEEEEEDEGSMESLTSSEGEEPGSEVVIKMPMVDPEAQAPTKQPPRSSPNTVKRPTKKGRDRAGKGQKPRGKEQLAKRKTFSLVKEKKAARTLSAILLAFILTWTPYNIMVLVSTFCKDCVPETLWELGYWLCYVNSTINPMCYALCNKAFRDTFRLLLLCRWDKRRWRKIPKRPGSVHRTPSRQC

[20] = molecular target: Glutamate receptor ionotropic, NMDA 2A (Homo sapiens, UniProt Q05586+Q12879); experiment: GluN2A-containing NMDA receptor (Ca2+ influx) assay (EC50)
[21] = molecular target: Beta-3 adrenergic receptor (Homo sapiens) (UniProt P13945); conditions: Compound concentration 10.0 uM
Sequence of Beta-3 adrenergic receptor (Homo sapiens) (P13945 whole entry, looked up): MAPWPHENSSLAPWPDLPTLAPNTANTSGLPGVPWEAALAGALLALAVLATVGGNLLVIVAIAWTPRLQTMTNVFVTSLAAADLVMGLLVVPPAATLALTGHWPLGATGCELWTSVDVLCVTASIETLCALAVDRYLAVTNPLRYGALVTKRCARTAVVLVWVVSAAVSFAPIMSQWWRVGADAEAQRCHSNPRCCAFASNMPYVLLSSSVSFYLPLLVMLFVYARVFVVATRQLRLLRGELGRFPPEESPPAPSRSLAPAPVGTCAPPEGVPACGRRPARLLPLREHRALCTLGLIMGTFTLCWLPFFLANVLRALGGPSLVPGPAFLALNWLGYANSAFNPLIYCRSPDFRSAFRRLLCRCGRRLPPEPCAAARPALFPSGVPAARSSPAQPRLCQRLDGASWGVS

[22] = molecular target: Muscarinic acetylcholine receptor M4 (Homo sapiens) (UniProt P08173); conditions: Compound concentration 10.0 uM
[23] = molecular target: Beta-1 adrenergic receptor (Homo sapiens, UniProt P08588); conditions: Compound concentration 10.0 uM
Sequence of Beta-1 adrenergic receptor (P08588 whole entry, looked up): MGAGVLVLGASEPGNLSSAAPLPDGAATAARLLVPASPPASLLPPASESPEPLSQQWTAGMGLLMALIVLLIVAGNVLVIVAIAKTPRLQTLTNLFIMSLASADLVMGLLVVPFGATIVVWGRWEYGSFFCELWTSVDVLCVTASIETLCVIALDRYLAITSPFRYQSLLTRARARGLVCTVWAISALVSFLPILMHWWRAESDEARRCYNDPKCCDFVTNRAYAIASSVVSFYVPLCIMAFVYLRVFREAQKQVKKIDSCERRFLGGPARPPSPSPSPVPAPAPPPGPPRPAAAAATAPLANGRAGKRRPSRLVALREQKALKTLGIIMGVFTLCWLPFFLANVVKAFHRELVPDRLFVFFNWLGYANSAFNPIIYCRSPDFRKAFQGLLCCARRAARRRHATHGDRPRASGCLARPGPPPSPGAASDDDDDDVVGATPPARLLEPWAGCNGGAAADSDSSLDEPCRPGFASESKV

D(2) dopamine receptor = D(2) dopamine receptor (Homo sapiens, UniProt P14416); conditions: Compound concentration 10.0 uM
[24] = molecular target: Sodium-dependent noradrenaline transporter (Homo sapiens, UniProt P23975); conditions: Compound concentration 10.0 uM
[25] = molecular target: T1, Sodium-dependent dopamine transporter; conditions: Compound concentration 10.0 uM
[26] = molecular target: Kappa-type opioid receptor (Homo sapiens, UniProt P41145); conditions: Compound concentration 10.0 uM
Sequence of Kappa-type opioid receptor (P41145 whole entry): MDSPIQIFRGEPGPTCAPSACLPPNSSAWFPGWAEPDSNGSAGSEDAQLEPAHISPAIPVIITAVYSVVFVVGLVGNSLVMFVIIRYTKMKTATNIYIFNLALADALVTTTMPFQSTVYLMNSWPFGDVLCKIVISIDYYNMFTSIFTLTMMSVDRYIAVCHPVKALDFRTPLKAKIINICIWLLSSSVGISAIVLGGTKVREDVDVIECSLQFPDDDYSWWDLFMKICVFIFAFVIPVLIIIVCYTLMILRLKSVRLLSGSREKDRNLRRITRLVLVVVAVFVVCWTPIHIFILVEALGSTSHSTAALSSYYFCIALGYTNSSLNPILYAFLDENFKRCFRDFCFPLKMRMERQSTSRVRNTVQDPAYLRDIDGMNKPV

[27] = molecular target: GABA-A receptor; anion channel (Rattus norvegicus) (UniProt O09028+P15431+P18506+P18508+P19969+P20236+P23574+P23576+P28471+P28473+P30191+P62813+P63079+P63138+Q91ZM7+Q9ES14); conditions: Compound concentration 10.0 uM
[28] = molecular target: 5-hydroxytryptamine receptor 2B (Homo sapiens, UniProt P41595); conditions: Compound concentration 10.0 uM
Histamine H2 receptor = Histamine H2 receptor (Homo sapiens, UniProt P25021); conditions: Compound concentration 10.0 uM
[29] = molecular target: Sigma non-opioid intracellular receptor 1 (Homo sapiens) (UniProt Q99720); conditions: Compound concentration 10.0 uM
Sequence of Sigma non-opioid intracellular receptor 1 (Homo sapiens) (Q99720 whole entry): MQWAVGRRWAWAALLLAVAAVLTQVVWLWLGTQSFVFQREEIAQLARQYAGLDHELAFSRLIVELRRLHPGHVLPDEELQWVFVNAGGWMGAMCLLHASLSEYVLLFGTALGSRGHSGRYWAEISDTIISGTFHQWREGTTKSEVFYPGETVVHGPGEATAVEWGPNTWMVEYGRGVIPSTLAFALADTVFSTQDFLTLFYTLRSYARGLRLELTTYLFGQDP

[30] = AMPA receptor scintillation proximity binding assay; set-up: species or system Homo sapiens
[31] = molecular target: 5-hydroxytryptamine receptor 3A (Homo sapiens) (UniProt P46098); conditions: Compound concentration 10.0 uM
Sequence of 5-hydroxytryptamine receptor 3A (Homo sapiens) (P46098 whole entry): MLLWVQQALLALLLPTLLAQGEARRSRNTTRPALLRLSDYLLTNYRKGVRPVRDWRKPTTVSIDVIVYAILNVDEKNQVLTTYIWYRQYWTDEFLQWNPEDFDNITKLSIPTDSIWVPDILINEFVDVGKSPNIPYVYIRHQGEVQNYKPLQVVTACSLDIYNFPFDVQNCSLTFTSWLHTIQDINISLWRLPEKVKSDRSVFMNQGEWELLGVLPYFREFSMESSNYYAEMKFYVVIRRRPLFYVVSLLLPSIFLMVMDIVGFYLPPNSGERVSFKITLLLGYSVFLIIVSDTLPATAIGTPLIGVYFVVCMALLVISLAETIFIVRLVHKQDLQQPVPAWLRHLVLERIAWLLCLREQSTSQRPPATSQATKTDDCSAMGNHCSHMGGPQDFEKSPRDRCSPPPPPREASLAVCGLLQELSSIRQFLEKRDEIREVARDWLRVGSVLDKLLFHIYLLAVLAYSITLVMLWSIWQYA

[32] = molecular target: Sodium-dependent serotonin transporter (Homo sapiens, UniProt P31645); conditions: Compound concentration 10.0 uM
[33] = molecular target: 5-hydroxytryptamine receptor 2C (Homo sapiens) (UniProt P28335); conditions: Compound concentration 10.0 uM
[34] = molecular target: D(4) dopamine receptor (Homo sapiens) (UniProt P21917); conditions: Compound concentration 10.0 uM

Q: Which results are given for Cc1cn([C@@H](C)CC#N)c(=O)c2cc(Cn3nc(C(F)F)cc3Cl)nn12?
A: inhibition [1]: 20.4%; inhibition [2]: 3.73%; pKi [3]: < 5; Ki ([3]; read-out: Ki): > 10 µM; inhibition (Rattus norvegicus): 21.3%; inhibition [4]: -4.44%; inhibition [5]: 4.06%; inhibition [6]: -9.06%; inhibition [7]: -6.08%; inhibition [8]: -7.46%; inhibition (Histamine H1 receptor): -2.74%; inhibition (D(1A) dopamine receptor): -0.9%; inhibition (Mu-type opioid receptor): -0.1%; inhibition [9]: -8.09%; inhibition [10]: 27.7%; inhibition [11]: -9.92%; inhibition [12]: 1.49%; inhibition [13]: 15.8%; inhibition [14]: 19%; inhibition [15]: 1.85%; inhibition [16]: 15.5%; inhibition [17]: -5.14%; inhibition [18]: -6.45%; inhibition [19]: -8.98%; EC50 [20]: > 30 µM (not active); inhibition [21]: -5.75%; inhibition [22]: -0.32%; inhibition [23]: -0.27%; inhibition (D(2) dopamine receptor): 5.88%; inhibition [24]: -2.17%; inhibition [25]: 57.6%; inhibition [26]: 22.6%; inhibition [27]: 1.81%; inhibition [28]: 12%; inhibition (Histamine H2 receptor): 7.11%; inhibition [29]: 33.4%; IC50 [30]: > 30 µM (not active); inhibition [31]: -1.27%; inhibition [32]: 0.68%; inhibition [33]: -9.2%; inhibition [34]: -5.71%
